Legend:
Type in all cases: in vivo
[1] = tested on: Echinochloa crus-galli (ECHCG); test: Glasshouse herbicide test, pre-emergence; details: PRE Application; 500 g/h; evaluated after 13 days
Method: (§1) Seeds of a variety of test species are shown in standard soil in pots (Lolium perenne (LOLPE), Amaranthus retoflexus (AMARE), Abutilon theophrasti (ABUTH), Setaria faberi (SETFA), Echinochloa crus-galli (ECHCG), Ipomoea hederacea (IPOHE)). After cultivation for one day (pre-emergence) or after 8 days cultivation (post-emergence) under controlled conditions in a glasshouse (at 24/16° C., day/night; 14 hours light; 65% humidity), the plants are sprayed with an aqueous spray solution derived from the formulation of the technical active ingredient in acetone/water (50:50) solution containing 0.5% Tween 20 (polyoxyethelyene sorbitan monolaurate, CAS RN 9005-64-5). Compounds are applied at 500 g/h. The test plants are then grown in a glasshouse under controlled conditions in a glasshouse (at 24/16° C., day/night; 14 hours light; 65% humidity) and watered twice daily. After 13 days for pre and post-emergence, the test is evaluated for the percentage damage caused to the plant. The biological activities are shown in the following table on a five point scale (5=80-100%; 4=60-79%; 3=40-59%; 2=20-39%; 1=0-19%).

[2] = tested on: Ipomoea hederacea (IPOHE); test: Glasshouse herbicide test, pre-emergence; details: PRE Application; 500 g/h; evaluated after 13 days
Method: as §1

Setaria faberi (SETFA) [3] = test: Glasshouse herbicide test, pre-emergence; details: PRE Application; 500 g/h; evaluated after 13 days
Method: as §1

[4] = tested on: Abutilon theophrasti (ABUTH); test: Glasshouse herbicide test, pre-emergence; details: PRE Application; 500 g/h; evaluated after 13 days
Method: as §1

[5] = tested on: Amaranthus retoflexus (AMARE); test: Glasshouse herbicide test, pre-emergence; details: PRE Application; 500 g/h; evaluated after 13 days
Method: as §1

[6] = tested on: Echinochloa crus-galli (ECHCG); test: Glasshouse herbicide test, post-emergence; details: POST Application; 500 g/h; evaluated after 13 days
Method: as §1

[7] = tested on: Ipomoea hederacea (IPOHE); test: Glasshouse herbicide test, post-emergence; details: POST Application; 500 g/h; evaluated after 13 days
Method: as §1

Setaria faberi (SETFA) [8] = test: Glasshouse herbicide test, post-emergence; details: POST Application; 500 g/h; evaluated after 13 days
Method: as §1

[9] = tested on: Abutilon theophrasti (ABUTH); test: Glasshouse herbicide test, post-emergence; details: POST Application; 500 g/h; evaluated after 13 days
Method: as §1

[10] = tested on: Amaranthus retoflexus (AMARE); test: Glasshouse herbicide test, post-emergence; details: POST Application; 500 g/h; evaluated after 13 days
Method: as §1

Row | Structure (SMILES) | percentage damage caused to the plant, five point scale, ECHCG [1] | percentage damage caused to the plant, five point scale, IPOHE [2] | percentage damage caused to the plant, five point scale, SETFA (Setaria faberi (SETFA) [3]) | percentage damage caused to the plant, five point scale, ABUTH [4] | percentage damage caused to the plant, five point scale, AMARE [5] | percentage damage caused to the plant, five point scale, ECHCG [6] | percentage damage caused to the plant, five point scale, IPOHE [7] | percentage damage caused to the plant, five point scale, SETFA (Setaria faberi (SETFA) [8]) | percentage damage caused to the plant, five point scale, ABUTH [9] | percentage damage caused to the plant, five point scale, AMARE [10]
1 | CON(C(=O)OC(C)(C)C)c1c(C(F)(F)F)ccc(C(=O)Nc2nnc(C)o2)c1Cl [Compound 2.009, tert-butyl N-[2-chloro-3-[(5-methyl-1,3,4-oxadiazol-2-yl)carbamoyl]-6-(trifluoromethyl)phenyl]-N-methoxy-carbamate] | 5 (5=80-100%) | 1 (1=0-19%) | 2 (2=20-39%) | 3 (3=40-59%) | 5 (5=80-100%) | 5 (5=80-100%) | 3 (3=40-59%) | 5 (5=80-100%) | 3 (3=40-59%) | 3 (3=40-59%)
2 | CON(C(=O)C(C)C)c1c(C(F)(F)F)ccc(C(=O)Nc2nnnn2C)c1Cl [Compound 1.049] | 5 (5=80-100%) | 5 (5=80-100%) | 5 (5=80-100%) | 5 (5=80-100%) | 5 (5=80-100%) | 5 (5=80-100%) | 5 (5=80-100%) | 5 (5=80-100%) | 5 (5=80-100%) | 5 (5=80-100%)
3 | CCC(=O)N(OC)c1c(C(F)(F)F)ccc(C(=O)Nc2nnnn2C)c1Cl [Compound 1.050] | 5 (5=80-100%) | 4 (4=60-79%) | 5 (5=80-100%) | 5 (5=80-100%) | 5 (5=80-100%) | 5 (5=80-100%) | 5 (5=80-100%) | 5 (5=80-100%) | 5 (5=80-100%) | 5 (5=80-100%)
4 | CON(C)c1c(C(F)(F)F)ccc(C(=O)Nc2nnnn2C)c1F [Compound 1.065] | 5 (5=80-100%) | 5 (5=80-100%) | 5 (5=80-100%) | 5 (5=80-100%) | 5 (5=80-100%) | 5 (5=80-100%) | 5 (5=80-100%) | 5 (5=80-100%) | 5 (5=80-100%) | 5 (5=80-100%)
5 | CON(C(=O)OC(C)(C)C)c1c(S(C)(=O)=O)ccc(C(=O)Nc2nnnn2C)c1Cl [Compound 1.031] | 5 (5=80-100%) | 5 (5=80-100%) | 5 (5=80-100%) | 5 (5=80-100%) | 5 (5=80-100%) | 5 (5=80-100%) | 5 (5=80-100%) | 5 (5=80-100%) | 5 (5=80-100%) | 5 (5=80-100%)
6 | CC(C)ON(C)c1c(S(C)(=O)=O)ccc(C(=O)Nc2nnnn2C)c1Cl [Compound 1.057] | 5 (5=80-100%) | 5 (5=80-100%) | 5 (5=80-100%) | 5 (5=80-100%) | 5 (5=80-100%) | 5 (5=80-100%) | 5 (5=80-100%) | 5 (5=80-100%) | 5 (5=80-100%) | 5 (5=80-100%)
7 | CON(C(C)=O)c1c(C(F)(F)F)ccc(C(=O)Nc2nnc(C)o2)c1Cl [Compound 2.001] | 5 (5=80-100%) | 4 (4=60-79%) | 5 (5=80-100%) | 5 (5=80-100%) | 5 (5=80-100%) | 5 (5=80-100%) | 5 (5=80-100%) | 5 (5=80-100%) | 5 (5=80-100%) | 5 (5=80-100%)
8 | CON(C(C)=O)c1c(S(C)(=O)=O)ccc(C(=O)Nc2nnnn2C)c1Cl [Compound 1.007] | 5 (5=80-100%) | 5 (5=80-100%) | 3 (3=40-59%) | 5 (5=80-100%) | 5 (5=80-100%) | 5 (5=80-100%) | 5 (5=80-100%) | 5 (5=80-100%) | 5 (5=80-100%) | 5 (5=80-100%)
9 | CCON(C)c1c(S(C)(=O)=O)ccc(C(=O)Nc2nnnn2CC)c1Cl [Compound 1.055] | 5 (5=80-100%) | 5 (5=80-100%) | 5 (5=80-100%) | 5 (5=80-100%) | 5 (5=80-100%) | 5 (5=80-100%) | 5 (5=80-100%) | 5 (5=80-100%) | 5 (5=80-100%) | 5 (5=80-100%)
10 | CCCON(C)c1c(S(C)(=O)=O)ccc(C(=O)Nc2nnnn2C)c1Cl [Compound 1.056] | 5 (5=80-100%) | 5 (5=80-100%) | 5 (5=80-100%) | 5 (5=80-100%) | 5 (5=80-100%) | 5 (5=80-100%) | 5 (5=80-100%) | 5 (5=80-100%) | 5 (5=80-100%) | 5 (5=80-100%)

— US11851411B2, “Herbicidal compounds” (SYNGENTA CROP PROTECTION AG, priority 2018, dated 2023)
